The assay concerns the target T1, TNKS2 (Homo sapiens, UniProt Q9H2K2).
T1 construct: Recombinant GST-TNKS2
T1 sequence (Q9H2K2 1-1166): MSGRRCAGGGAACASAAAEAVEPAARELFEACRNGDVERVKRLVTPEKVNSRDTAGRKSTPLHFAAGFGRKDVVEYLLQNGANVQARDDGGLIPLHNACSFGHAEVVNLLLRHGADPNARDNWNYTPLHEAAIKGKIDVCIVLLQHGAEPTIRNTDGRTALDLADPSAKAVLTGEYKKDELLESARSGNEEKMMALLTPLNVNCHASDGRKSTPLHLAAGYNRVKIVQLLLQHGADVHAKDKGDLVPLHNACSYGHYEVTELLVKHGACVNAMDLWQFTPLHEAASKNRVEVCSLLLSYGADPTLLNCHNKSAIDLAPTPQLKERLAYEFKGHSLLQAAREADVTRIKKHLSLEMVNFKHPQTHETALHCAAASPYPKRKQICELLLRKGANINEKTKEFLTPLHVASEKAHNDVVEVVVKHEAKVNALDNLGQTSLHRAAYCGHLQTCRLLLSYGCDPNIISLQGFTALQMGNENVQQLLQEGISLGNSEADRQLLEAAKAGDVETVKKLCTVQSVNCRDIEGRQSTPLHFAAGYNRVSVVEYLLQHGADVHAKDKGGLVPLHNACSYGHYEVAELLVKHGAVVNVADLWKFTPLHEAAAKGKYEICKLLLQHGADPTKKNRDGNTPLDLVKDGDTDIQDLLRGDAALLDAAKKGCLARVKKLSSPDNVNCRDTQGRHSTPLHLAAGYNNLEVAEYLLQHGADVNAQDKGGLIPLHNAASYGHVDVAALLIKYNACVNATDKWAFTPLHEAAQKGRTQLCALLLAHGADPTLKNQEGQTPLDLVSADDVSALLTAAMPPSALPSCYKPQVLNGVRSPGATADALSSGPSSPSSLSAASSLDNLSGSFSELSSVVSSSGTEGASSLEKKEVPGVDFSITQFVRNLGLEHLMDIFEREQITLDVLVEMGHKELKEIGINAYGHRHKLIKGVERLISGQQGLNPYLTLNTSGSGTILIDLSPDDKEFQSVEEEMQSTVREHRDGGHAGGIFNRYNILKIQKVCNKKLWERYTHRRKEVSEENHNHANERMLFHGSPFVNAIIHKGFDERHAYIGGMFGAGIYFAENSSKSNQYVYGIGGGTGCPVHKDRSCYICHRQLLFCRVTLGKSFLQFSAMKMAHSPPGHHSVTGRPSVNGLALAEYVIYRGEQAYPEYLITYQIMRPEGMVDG
As to the kind of experiment: in vitro auto-ADP-ribosylation assay with recombinant GST-TNKS2, biotinylated substrate, chemiluminescent detection. The format is biochemical.

Each structure is given as a SMILES string.

By IC50 is commonly meant the point on the concentration scale where inhibition reaches its midpoint. On to `COc1ccc(-n2c(SCCCN3C(=O)c4cccc5cccc(c45)C3=O)nnc2-c2ccncc2)cc1` [WIKI4], for which the IC50 is approximately 15 nM.
